Assay results published in ChEMBL document CHEMBL1201862, “PubChem BioAssay data set” (2004).
Counter-ions that a name gives are not always drawn. Activity calls are given as the source filed them.

Key:
[1] = inhibitors of firefly luciferase expression or activity, dose response, H4 neuroglioma cells, luminescence (AID 1990); type: functional, cell-based
[2] = Luminescence Cell-Based Dose Response HTS to Identify Inhibitors of 5'UTR Stem-Loop Driven Prion Protein mRNA Translation in H4 Neuroglioblastoma Cells. [Related pubchem assays: 1827 (Project Summary), 1813 (Primary HTS)]; type: functional
[3] = inhibitors of SNCA 5'UTR-driven reporter translation, confirmation, H4 neuroglioma cells, luminescence (AID 1988); type: functional, cell-based
[4] = target: T1, DNA repair protein RAD52 homolog (Homo sapiens, UniProt P43351); type: functional, biochemical
T1 sequence (P43351 whole entry): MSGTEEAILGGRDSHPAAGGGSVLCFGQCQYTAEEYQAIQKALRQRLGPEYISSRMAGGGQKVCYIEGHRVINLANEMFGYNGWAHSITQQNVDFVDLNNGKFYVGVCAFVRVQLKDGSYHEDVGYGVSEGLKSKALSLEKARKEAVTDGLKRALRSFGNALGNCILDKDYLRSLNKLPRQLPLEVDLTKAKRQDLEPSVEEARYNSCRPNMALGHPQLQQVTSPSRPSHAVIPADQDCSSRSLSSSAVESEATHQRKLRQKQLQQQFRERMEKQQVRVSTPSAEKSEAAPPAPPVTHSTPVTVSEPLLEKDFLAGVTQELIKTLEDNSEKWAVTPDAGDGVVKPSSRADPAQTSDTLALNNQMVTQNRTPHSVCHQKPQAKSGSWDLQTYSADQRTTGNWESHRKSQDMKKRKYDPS

[5] = target: T2, Adenosylmethionine-8-amino-7-oxononanoate aminotransferase (Mycobacterium tuberculosis, UniProt P9WQ81); assay: Mycobacterium tuberculosis BioA enzyme inhibitor Measured in Biochemical System Using Plate Reader - 2163-02_Inhibitor_Dose_CherryPick_Activity.; type: functional, Mycobacterium tuberculosis UT205
T2 sequence (P9WQ81 whole entry): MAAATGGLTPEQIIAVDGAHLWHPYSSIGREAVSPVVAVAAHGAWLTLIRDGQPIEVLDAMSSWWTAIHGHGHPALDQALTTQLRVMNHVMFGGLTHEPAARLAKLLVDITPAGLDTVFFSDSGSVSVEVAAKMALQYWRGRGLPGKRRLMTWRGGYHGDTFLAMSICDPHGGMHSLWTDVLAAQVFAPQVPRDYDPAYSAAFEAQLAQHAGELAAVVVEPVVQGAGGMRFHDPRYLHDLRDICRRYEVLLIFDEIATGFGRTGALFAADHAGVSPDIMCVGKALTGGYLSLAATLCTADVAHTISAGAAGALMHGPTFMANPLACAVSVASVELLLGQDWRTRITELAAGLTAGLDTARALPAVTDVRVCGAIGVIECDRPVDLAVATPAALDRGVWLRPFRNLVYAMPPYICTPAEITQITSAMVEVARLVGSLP

[6] = target: 26S proteasome non-ATPase regulatory subunit 14 (Homo sapiens, UniProt O00487); assay: inhibition of proteasome subunit RPN11 – biochemical, fluorescence polarization, uHTS hits, confirmation (AID 602368); type: functional
[7] = target: 72 kDa type IV collagenase (Homo sapiens, UniProt P08253); assay: Dose Response validation of uHTS RPN11 inhibitor hits using a MMP-2 Fluorescence assay.; type: functional
Prothrombin = Prothrombin (Bos taurus, UniProt P00735); assay: thrombin inhibition, dose response, biochemical, fluorescence polarization, uHTS hits (AID 602369); type: functional
[8] = target: T3, Small ubiquitin-related modifier 1 (Homo sapiens, UniProt P63165); assay: inhibitors of SUMO1 peptide binding, dose response, biochemical, fluorescence polarization, uHTS hits (AID 624382); type: functional; settings: read-out: IC50_Mean
[9] = target: T3, Small ubiquitin-related modifier 1; assay: inhibitors of SUMO1 partner interactions, dose response, biochemical, FRET (AID 624383); type: functional; settings: read-out: IC50_Mean
cells [10] = type: functional, cell-based
[11] = target: T4, Trace amine-associated receptor 1 (Homo sapiens, UniProt Q96RJ0); assay: Fluorescence-based cell-based high throughput dose response assay to identify agonists of the human trace amine associated receptor 1 (TAAR1).; type: functional
T4 sequence (Q96RJ0 whole entry): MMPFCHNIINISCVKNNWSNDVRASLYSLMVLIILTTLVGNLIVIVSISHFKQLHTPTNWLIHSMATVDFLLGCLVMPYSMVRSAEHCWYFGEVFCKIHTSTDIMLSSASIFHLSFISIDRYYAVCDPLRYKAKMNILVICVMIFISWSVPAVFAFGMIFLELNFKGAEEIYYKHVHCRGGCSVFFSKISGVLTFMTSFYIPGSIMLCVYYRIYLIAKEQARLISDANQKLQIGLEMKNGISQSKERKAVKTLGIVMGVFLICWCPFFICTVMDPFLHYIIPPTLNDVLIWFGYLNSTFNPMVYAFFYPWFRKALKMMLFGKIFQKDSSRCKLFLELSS

[12] = target: T4, Trace amine-associated receptor 1; assay: Counterscreen for agonists of the human trace amine associated receptor 1 (hTAAR1): Fluorescence-based cell-based high throughput dose response assay to identify hTAAR1 agonist that also desensitize TAAR1 receptor response.; type: functional
cells [13] = type: functional, cell-based; remark: listed apart in the source
[14] = system: Streptococcus sp. 'group A'; assay: growth inhibition of control SK(-) GAS strain, dose response, counter-screen for streptokinase expression inhibitor project, luminescence, kanamycin, BacTiterGlo, confirmation (AID 1900); type: functional, organism-based
Streptokinase A = target: T5, Streptokinase A (Streptococcus pyogenes serotype M1, UniProt P10520); assay: S. pyogenes streptokinase expression inhibitors, potency, dose response, plasminogen activation absorbance, OD405 (AID 1914); type: functional, Streptococcus pyogenes M1 GAS;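 note: secreted streptokinase activity via plasminogen activation per viability signal from cell pellet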
T5 sequence (P10520 whole entry): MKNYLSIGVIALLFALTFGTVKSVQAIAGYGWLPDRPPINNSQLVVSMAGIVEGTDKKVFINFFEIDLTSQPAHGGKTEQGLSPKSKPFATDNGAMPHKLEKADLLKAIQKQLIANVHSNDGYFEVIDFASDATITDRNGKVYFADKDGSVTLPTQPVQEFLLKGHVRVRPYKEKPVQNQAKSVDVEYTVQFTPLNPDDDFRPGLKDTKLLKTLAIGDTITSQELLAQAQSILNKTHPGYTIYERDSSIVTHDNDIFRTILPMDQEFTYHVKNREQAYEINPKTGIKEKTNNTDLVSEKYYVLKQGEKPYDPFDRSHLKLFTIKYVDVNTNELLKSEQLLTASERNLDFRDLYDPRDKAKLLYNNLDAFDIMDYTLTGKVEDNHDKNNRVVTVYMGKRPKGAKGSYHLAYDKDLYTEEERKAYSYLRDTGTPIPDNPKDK

Streptococcus = assay: Group A Streptococcus viability loss, dose response, counter-screen for streptokinase expression inhibitor project, luminescence, BacTiterGlo (AID 1915); type: functional, organism-based;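 note: potency for reduction of bacterial viability or growth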
[15] = target: T6, Corticotropin-releasing factor receptor 2/Corticotropin-releasing factor-binding protein (Homo sapiens, UniProt P24387+Q13324); assay: Dose Response confirmation of uHTS hits for small molecule antagonists of the CRF-binding protein and CRF-R2 receptor complex.; type: functional; settings: read-out: IC50_Mean
T6 sequence (Q13324 whole entry): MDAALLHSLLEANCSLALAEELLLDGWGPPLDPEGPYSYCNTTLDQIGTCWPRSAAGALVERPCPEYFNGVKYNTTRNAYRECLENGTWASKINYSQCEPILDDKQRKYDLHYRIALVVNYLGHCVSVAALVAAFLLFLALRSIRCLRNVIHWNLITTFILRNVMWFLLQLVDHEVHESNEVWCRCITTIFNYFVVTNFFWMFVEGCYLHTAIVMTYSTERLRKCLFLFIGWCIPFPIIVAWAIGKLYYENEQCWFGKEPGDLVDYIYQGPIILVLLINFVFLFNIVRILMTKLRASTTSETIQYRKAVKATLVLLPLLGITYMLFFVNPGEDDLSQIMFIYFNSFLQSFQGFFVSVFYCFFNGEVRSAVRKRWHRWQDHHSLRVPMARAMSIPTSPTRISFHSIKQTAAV
T6 sequence (P24387 whole entry): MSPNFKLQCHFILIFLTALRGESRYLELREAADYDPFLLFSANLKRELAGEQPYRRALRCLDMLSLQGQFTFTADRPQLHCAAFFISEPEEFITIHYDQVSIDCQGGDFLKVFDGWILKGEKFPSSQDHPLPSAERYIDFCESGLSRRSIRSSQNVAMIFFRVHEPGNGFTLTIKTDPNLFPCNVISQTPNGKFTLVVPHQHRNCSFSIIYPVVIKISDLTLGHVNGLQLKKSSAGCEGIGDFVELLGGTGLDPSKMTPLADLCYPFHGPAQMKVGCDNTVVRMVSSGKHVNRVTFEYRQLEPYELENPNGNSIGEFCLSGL

[16] = target: T6, Corticotropin-releasing factor receptor 2/Corticotropin-releasing factor-binding protein; assay: activators of CRF receptor 2 with binding protein – uHTS hits, confirmation (AID 602473); type: functional; settings: read-out: EC50_Mean
[17] = CRF-BP/CRF-R2 complex antagonists, dose response, cell-based, uHTS hits, 384-well (AID 651639); type: functional, Homo sapiens; settings: read-out: IC50_Mean
H9c2 = assay: cells; type: functional, cell-based; settings: Rattus norvegicus, H9c2, Myocardium;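 note: confirmatory concentration-response retest of ultra-high-throughput screening hits for modulation of myocardial damage; cell death induced by hydrogen peroxide oxidative stress; compound pretreatment for 60 min then peroxide exposure for 2 h; potency is for protecting the cells against peroxide damage rather than for killing them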
[18] = target: T7, Fructose-bisphosphate aldolase (Mycobacterium tuberculosis, UniProt P9WQA3); assay: Fluorescence-based biochemical high throughput dose response assay for inhibitors of the fructose-bisphosphate aldolase (FBA) of M. tuberculosis.; type: functional
T7 sequence (P9WQA3 whole entry): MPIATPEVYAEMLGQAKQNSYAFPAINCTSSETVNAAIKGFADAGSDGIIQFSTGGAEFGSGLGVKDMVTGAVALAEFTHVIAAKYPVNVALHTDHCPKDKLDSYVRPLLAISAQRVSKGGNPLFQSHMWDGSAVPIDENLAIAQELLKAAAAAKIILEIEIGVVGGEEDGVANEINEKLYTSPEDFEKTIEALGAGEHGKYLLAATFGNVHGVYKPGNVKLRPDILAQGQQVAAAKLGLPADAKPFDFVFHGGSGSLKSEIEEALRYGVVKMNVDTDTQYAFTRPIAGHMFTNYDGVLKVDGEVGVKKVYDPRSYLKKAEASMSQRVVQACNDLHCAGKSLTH

T3 sequence (P63165 whole entry): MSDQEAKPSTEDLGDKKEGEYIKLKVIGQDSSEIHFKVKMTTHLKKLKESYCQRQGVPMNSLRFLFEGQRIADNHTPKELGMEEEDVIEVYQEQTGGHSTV
72 kDa type IV collagenase, sequence (P08253 whole entry): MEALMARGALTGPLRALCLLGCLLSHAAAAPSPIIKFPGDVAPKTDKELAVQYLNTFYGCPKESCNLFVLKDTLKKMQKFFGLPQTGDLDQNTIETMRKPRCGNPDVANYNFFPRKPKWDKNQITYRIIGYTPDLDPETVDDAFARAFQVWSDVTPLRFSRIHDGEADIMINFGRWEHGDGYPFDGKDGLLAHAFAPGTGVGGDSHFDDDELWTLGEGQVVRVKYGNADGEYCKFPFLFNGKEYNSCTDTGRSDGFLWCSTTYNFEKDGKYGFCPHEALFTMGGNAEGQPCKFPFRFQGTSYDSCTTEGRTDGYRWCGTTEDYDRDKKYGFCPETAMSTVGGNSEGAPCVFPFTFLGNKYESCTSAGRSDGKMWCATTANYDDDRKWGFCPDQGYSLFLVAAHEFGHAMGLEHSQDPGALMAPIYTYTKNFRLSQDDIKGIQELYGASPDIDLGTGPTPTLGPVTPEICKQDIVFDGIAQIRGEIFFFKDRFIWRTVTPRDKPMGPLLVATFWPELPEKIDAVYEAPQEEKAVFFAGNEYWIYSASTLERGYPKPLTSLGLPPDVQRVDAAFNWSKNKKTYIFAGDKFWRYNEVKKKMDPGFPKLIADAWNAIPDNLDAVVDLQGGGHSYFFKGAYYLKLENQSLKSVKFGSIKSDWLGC
26S proteasome non-ATPase regulatory subunit 14, sequence (O00487 whole entry): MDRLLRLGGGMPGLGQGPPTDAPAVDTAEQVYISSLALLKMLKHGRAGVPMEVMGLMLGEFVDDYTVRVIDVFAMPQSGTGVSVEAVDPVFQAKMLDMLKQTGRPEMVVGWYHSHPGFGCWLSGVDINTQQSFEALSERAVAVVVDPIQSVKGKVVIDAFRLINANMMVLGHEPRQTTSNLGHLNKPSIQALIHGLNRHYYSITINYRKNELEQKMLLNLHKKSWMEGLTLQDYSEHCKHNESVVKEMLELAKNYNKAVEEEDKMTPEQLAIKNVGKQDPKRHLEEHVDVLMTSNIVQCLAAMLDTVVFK

CN1CCN(C2Cc3cc(Cl)ccc3Sc3cc(F)ccc32)CC1 (stereo not given)
EC50 [1]: > 120 µM (not active) | EC50 [2]: > 120 µM (not active) | EC50 [3]: 8.62 µM (active) | AC50 [4]: 18.1 µM (active)

COc1ccc(C2c3c(oc4ccc(Cl)cc4c3=O)C(=O)N2CCN2CCOCC2)cc1 (stereo not given)
AC50 [5]: 3.7 µM (active)

CC(=O)c1ccc(NC(=O)CN2CCN(c3ccccc3)CC2)cc1
AC50 [5]: 8.6 µM (active)

O=C(c1ccc(S(=O)(=O)Nc2ccccc2F)cc1)N1CCN(c2ccccc2O)CC1
AC50 [5]: 3.62 µM (active)

CCC(CO)Oc1cc(NC(=O)c2ccc(N)cc2)c2ncn(C(C)C)c2c1 (stereo not given)
IC50 [6]: 19.6 µM (active) | IC50 [7]: 64.6 µM (active) | IC50 (Prothrombin): > 100 µM (inactive) | IC50 [8]: > 66.6 µM (inactive) | IC50 [9]: 9.23 µM (active)

CCn1c(C)c(C(C)=O)c(NCc2ccccc2)nc1=S
AC50 [4]: 11 µM (active)

O=S(=O)(NCCc1ccccc1)c1ccc(F)cc1
IC50 (cells [10]): > 29.9 µM (inactive) | EC50 [11]: 1.37 µM (active) | IC50 [12]: 4.22 µM (active) | EC50 (cells [13]): > 29.9 µM (inactive)

CCc1ccc(N2CN(CCc3ccccc3)CN=C2S)cc1
IC50 (cells [10]): > 29.9 µM (inactive) | EC50 [11]: 2.26 µM (active) | IC50 [12]: 9.18 µM (active) | EC50 (cells [13]): > 29.9 µM (inactive)

Cc1ccccc1-c1cc2nc(-c3ccc([N+](=O)[O-])cc3)cc(O)n2n1
EC50 [14]: 9.23 µM (active) | EC50 (Streptokinase A): > 150 µM (not active) | EC50 (Streptococcus): 60.1 µM (active) | IC50 [15]: 4.74 µM (active) | EC50 [16]: > 53 µM (inactive) | IC50 [17]: 3.21 µM (active)

CC1=CC(C)(C)N2C(=O)C3(C(C#N)=C(N)Oc4cc(O)ccc43)c3c(C)c(C)cc1c32 (stereo not given)
IC50 [15]: 29.4 µM (active) | EC50 [16]: > 53 µM (inactive) | IC50 [17]: 16.5 µM (active)

CC1(C)CC(=O)C2=C(C1)N(CCN1CCOCC1)C1=C(C(=O)CC(C)(C)C1)C2c1ccc(Cl)cc1
IC50 (H9c2): > 79 µM (inactive) | IC50 [18]: 2.33 µM (active)

Cc1nn(S(=O)(=O)c2cccs2)c(C)c1Sc1ccc([N+](=O)[O-])cc1
IC50 [15]: < 0.368 µM (active) | EC50 [16]: > 53 µM (inactive) | IC50 [17]: 12.8 µM (active)

CNC(=O)C[C@H]1CC[C@@H]2[C@H](COC[C@@H](O)CN2C(=O)Nc2ccc3c(c2)OCO3)O1
AC50 [5]: 10.4 µM (active)

CC1(C)Oc2cc3oc(C(=O)O)cc(=O)c3cc2-c2ccccc21
IC50 [18]: > 0.37 µM (active)

O=C(Cc1nnc(O)nc1O)N/N=C/c1ccccc1
IC50 (cells [10]): > 29.9 µM (inactive) | EC50 [11]: > 29.9 µM (inactive) | IC50 [12]: > 29.9 µM (inactive) | EC50 (cells [13]): > 29.9 µM (inactive)

c1ccc2c(c1)CCCC2C1=NCCN1 (stereo not given) [TETRAHYDROZOLINE HYDROCHLORIDE]
IC50 (cells [10]): > 29.9 µM (inactive) | EC50 [11]: 0.154 µM (active) | IC50 [12]: 0.157 µM (active) | EC50 (cells [13]): > 29.9 µM (inactive)
